The values that follow come from ChEMBL document CHEMBL1201862, “PubChem BioAssay data set” (2004).

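How tested: cells in 96-well plates exposed to compound for 48 hours at five concentrations. GI50 is the concentration that inhibits growth by half.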 Active and inactive are the calls of the source. Rule as the data show it: active = GI50 up to about 1.1 µM and inactive = higher.

Among the test systems are MCF7; PC-3; A549; SR; NCI-H522; MDA-MB-435; LOX IMVI; NCI-H226; COLO 205; OVCAR-4; HL-60; SN12C; NCI-H23; DU-145; MDA-MB-231; SW-620; NCI/ADR-RES; SK-MEL-2; EKVX.
What all share (test): inhibition of tumour cell growth, NCI panel, 48 h

For the molecule `COC1(OC)C(/C(N)=C\O)=NC(C)(C)N1O`, the GI50 in the assay on MCF7 was 74.6 µM (inactive); with PC-3, > 100 µM (inactive); with A549 it was > 100 µM (inactive); in the assay on SR it was > 100 µM (inactive); in the assay with NCI-H522 it was > 100 µM (inactive); with MDA-MB-435, > 100 µM (inactive). Further, the GI50 with LOX IMVI is > 100 µM (inactive); in the assay with NCI-H226 it was > 100 µM (inactive); in the assay on COLO 205, 57 µM (inactive); in the assay on OVCAR-4, > 100 µM (inactive); in the assay on HL-60 it was 20.4 µM (inactive); in the assay on SN12C it was > 100 µM (inactive). In addition, the GI50 in the assay on NCI-H23, in the assay on DU-145, with MDA-MB-231, with SW-620, in the assay on NCI/ADR-RES and in the assay on SK-MEL-2 was > 100 µM (inactive) in each case. In the assay with EKVX, the GI50 was > 100 µM (inactive).

In the case of `COc1ccc(C2=C(Cl)C(=O)N(c3ccc(OC)cc3OC)C(=O)C2(Cl)Cl)cc1`, the GI50 in the assay with MCF7 is 21 µM (inactive); in the assay on PC-3, 13.2 µM (inactive); in the assay on A549 it was > 100 µM (inactive); in the assay with SR it was 4.09 µM (inactive); in the assay with NCI-H522, 14.3 µM (inactive); with MDA-MB-435, 16.9 µM (inactive). Moreover, the GI50 with LOX IMVI was 14.7 µM (inactive); in the assay with NCI-H226, 11.9 µM (inactive); in the assay with COLO 205 it was 17.9 µM (inactive); in the assay with OVCAR-4, 14.5 µM (inactive); in the assay with HL-60, 25.2 µM (inactive); with SN12C it was < 0.01 µM (active). The GI50 was 15.4 µM (inactive) in the assay with NCI-H23; 17.3 µM (inactive) in the assay on DU-145; 7.62 µM (inactive) in the assay with MDA-MB-231; 14.8 µM (inactive) in the assay with SW-620; 14.5 µM (inactive) with NCI/ADR-RES; 20.9 µM (inactive) with SK-MEL-2. The GI50 in the assay with EKVX is 32.8 µM (inactive).

For `Cc1cc(N(CCC#N)CCC#N)ccc1C(=N/NC(=O)c1cc(Cl)ccc1O)/N=N/c1cccc([N+](=O)[O-])c1`, the GI50 with MCF7 was 16.7 µM (inactive); in the assay with PC-3, 22.1 µM (inactive); with A549, 28 µM (inactive); in the assay on SR it was 12.6 µM (inactive); in the assay on NCI-H522, 17.3 µM (inactive); in the assay with MDA-MB-435, 35.4 µM (inactive). Further, the GI50 is 15.2 µM (inactive) in the assay with LOX IMVI; 25.1 µM (inactive) in the assay on NCI-H226; 16.7 µM (inactive) with COLO 205; 20.4 µM (inactive) in the assay with OVCAR-4; 14.7 µM (inactive) in the assay with HL-60; 28.3 µM (inactive) with SN12C. The GI50 in the assay on NCI-H23 is 22.6 µM (inactive); in the assay on DU-145, 27.2 µM (inactive); in the assay on MDA-MB-231 it was 14.5 µM (inactive); with SW-620, 39.3 µM (inactive); with NCI/ADR-RES, 23 µM (inactive); in the assay on SK-MEL-2, 21.7 µM (inactive). Besides, the GI50 with EKVX was 25.1 µM (inactive).

For `O=[N+]([O-])c1ccc2c(c1)C1=NN(c3ccccc3)C(c3ccccc3Br)C1CCC2` (stereo not given), the GI50 in the assay on MCF7 was 11.2 µM (inactive); with PC-3 it was 31.2 µM (inactive); in the assay with A549 it was 28.1 µM (inactive); with SR it was 4.05 µM (inactive); in the assay on NCI-H522 it was 13.3 µM (inactive); in the assay on MDA-MB-435 it was 15 µM (inactive). The GI50 in the assay with LOX IMVI was 19.9 µM (inactive); in the assay with NCI-H226, 25.5 µM (inactive); in the assay on COLO 205, 33.7 µM (inactive); in the assay with OVCAR-4, 19.9 µM (inactive); in the assay with HL-60 it was 7.64 µM (inactive); in the assay with SN12C, 24.6 µM (inactive). Besides, the GI50 in the assay on NCI-H23 is 18.7 µM (inactive); with DU-145, 16.3 µM (inactive); in the assay with MDA-MB-231 it was 36.3 µM (inactive); with SW-620 it was 9.12 µM (inactive); with NCI/ADR-RES, 12.7 µM (inactive); in the assay with SK-MEL-2, 24.7 µM (inactive). Also, the GI50 in the assay with EKVX was 20.5 µM (inactive).

For `Cc1ccc(OC2CC(n3cnc4c(=O)[nH]c(Br)nc43)OC2Oc2ccc(C)cc2)cc1` (stereo not given), the GI50 in the assay with MCF7 was 23.5 µM (inactive); in the assay with PC-3 it was 22.6 µM (inactive); in the assay on A549, 22.7 µM (inactive); with SR, 18.1 µM (inactive); with NCI-H522, 21.2 µM (inactive); with MDA-MB-435, 24 µM (inactive). Also, the GI50 in the assay on LOX IMVI is 26.2 µM (inactive); in the assay on NCI-H226, 34.5 µM (inactive); with COLO 205, 31 µM (inactive); with OVCAR-4 it was 37 µM (inactive); with HL-60, 30.3 µM (inactive); in the assay with SN12C, 26.2 µM (inactive). For the same molecule, the GI50 in the assay with NCI-H23 is 26.9 µM (inactive); in the assay with DU-145, 24.7 µM (inactive); in the assay on MDA-MB-231, 23 µM (inactive); with SW-620, 44.4 µM (inactive); in the assay with NCI/ADR-RES, 28.7 µM (inactive); in the assay on SK-MEL-2 it was 26.8 µM (inactive). Besides, in the assay on EKVX, the GI50 is 23.8 µM (inactive).

In the case of `COc1ccccc1NC(=S)N/N=C(/c1ccccc1)c1ccccn1`, the GI50 with MCF7 is 0.0228 µM (active); in the assay with PC-3, < 0.0142 µM (active); in the assay with A549, 0.141 µM (active); in the assay with SR, < 0.0206 µM (active); with NCI-H522, 0.499 µM (active); in the assay on MDA-MB-435, 0.356 µM (active). The GI50 is 0.0254 µM (active) with LOX IMVI; 0.146 µM (active) in the assay on NCI-H226; 0.0173 µM (active) with COLO 205; 0.71 µM (active) in the assay on OVCAR-4; < 0.0131 µM (active) in the assay with HL-60; 0.685 µM (active) in the assay with SN12C. Besides, the GI50 in the assay on NCI-H23 is < 0.013 µM (active); in the assay with DU-145 it was 0.325 µM (active); in the assay with MDA-MB-231, 0.0214 µM (active); with SW-620 it was 0.021 µM (active); in the assay with NCI/ADR-RES, 0.0853 µM (active); with SK-MEL-2 it was 4.4 µM (inactive). For the same molecule, in the assay with EKVX, the GI50 is 0.0968 µM (active).

For `CN(C)c1ccc(/C=C(\NC(=O)c2ccccc2)C2=NC(CCC(=O)O)C(=O)O2)cc1` (stereo not given), the GI50 with MCF7 was > 50 µM (inactive); with PC-3 it was > 50 µM (inactive); with A549, > 50 µM (inactive); in the assay with SR, 49.2 µM (inactive); with NCI-H522, 17.1 µM (inactive); in the assay with MDA-MB-435 it was > 50 µM (inactive). The GI50 in the assay on LOX IMVI is > 44.9 µM (inactive); with NCI-H226, > 50 µM (inactive); with COLO 205 it was > 50 µM (inactive); in the assay on OVCAR-4, > 35.1 µM (inactive); with HL-60, 49.9 µM (inactive); in the assay with SN12C, > 50 µM (inactive). The GI50 with NCI-H23 was > 50 µM (inactive); in the assay with DU-145, > 50 µM (inactive); with MDA-MB-231 it was > 50 µM (inactive); in the assay on SW-620, > 50 µM (inactive); in the assay on NCI/ADR-RES it was 49 µM (inactive); in the assay with SK-MEL-2, > 50 µM (inactive). In the assay on EKVX, the GI50 is > 50 µM (inactive).

`Clc1ccc(Cl)c(/N=N/c2cc3c4c(c2)CCCN4CCC3)c1`: the GI50 in the assay on MCF7, in the assay on PC-3, in the assay with A549, in the assay with SR, in the assay with NCI-H522 and in the assay with MDA-MB-435 was > 10 µM (inactive) in each case. The GI50 is > 10 µM (inactive) in the assay on LOX IMVI; > 10 µM (inactive) in the assay on NCI-H226; > 10 µM (inactive) in the assay with COLO 205; > 10 µM (inactive) in the assay with OVCAR-4; 5 µM (inactive) with HL-60; > 10 µM (inactive) in the assay with SN12C. Further, the GI50 in the assay with NCI-H23, with DU-145, with MDA-MB-231, in the assay with SW-620, with NCI/ADR-RES and in the assay on SK-MEL-2 was > 10 µM (inactive) in each case. For the same molecule, the GI50 with EKVX is > 10 µM (inactive).

For the molecule `CC(=O)OCC1=C(C)C[C@H]([C@@H](COC(C)=O)C2CCC3C4C[C@H]5O[C@]56CC=CC(=O)[C@]6(C)C4CC[C@@]32C)OC1=O` (stereo not given in full), the GI50 was 0.00955 µM (active) in the assay on MCF7; 0.417 µM (active) in the assay on PC-3; 1.39 µM (inactive) in the assay on A549; 0.005 µM (active) in the assay on SR; 0.134 µM (active) in the assay with NCI-H522; 0.153 µM (active) in the assay with MDA-MB-435. The GI50 is 0.122 µM (active) with LOX IMVI; 0.598 µM (active) in the assay on NCI-H226; 0.307 µM (active) in the assay with COLO 205; 0.359 µM (active) in the assay with OVCAR-4; 0.0384 µM (active) in the assay on HL-60; 0.444 µM (active) in the assay on SN12C. For the same molecule, the GI50 in the assay with NCI-H23 is 0.37 µM (active); with DU-145, 0.414 µM (active); with MDA-MB-231 it was 0.376 µM (active); in the assay with SW-620, 0.115 µM (active); with NCI/ADR-RES, 0.185 µM (active); in the assay with SK-MEL-2, 0.716 µM (active). Also, in the assay on EKVX, the GI50 is 0.465 µM (active).

`C[N+](C)(N)CCC[N+](C)(C)N`: the GI50 with MCF7, with PC-3, with A549, with SR, in the assay with NCI-H522 and in the assay on MDA-MB-435 was > 100 µM (inactive) in each case. For the same molecule, the GI50 in the assay with LOX IMVI, in the assay on NCI-H226, with COLO 205, in the assay with OVCAR-4, in the assay with HL-60 and with SN12C was > 100 µM (inactive) in each case. Also, the GI50 in the assay on NCI-H23, in the assay with DU-145, in the assay with MDA-MB-231, in the assay with SW-620, with NCI/ADR-RES and in the assay with SK-MEL-2 was > 100 µM (inactive) throughout. The GI50 in the assay with EKVX is > 100 µM (inactive).
